From US5852017A, “2,3(1H,4H)-quinoxalinediones” (BASF Aktiengesellschaft, priority 1992, dated 1998)

Columns and labels:
AMPA receptors = test: Binding of 3H-AMPA to rat cerebra membrane material; settings: displacement of 3H-AMPA, membrane material from rat cerebra, incubated on ice for 60 minutes
Method: (§1) The pharmacological activity of the compounds I and I' according to the invention was investigated on membrane material isolated from rat cerebra. To do this, the membrane material was treated in the presence of the compounds according to the invention with the radio-labeled substances ^3 H-2-amino-3-hydroxy-5-methyl-4-isoxazolepropionic acid (^3 H-AMPA) and ^3 H-5,7-dichlorokynurenic acid, which bind to specific receptors (AMPA and NMDA (N-methyl-D-aspartate) receptors respectively). The radioactivity of the treated membranes was then measured by scintillation counting. The amounts of bound ^3 H-AMPA and ^3 H-5,7-dichlorokynurenic acid, or the amounts of these radiolabeled substances displaced in each case, can be determined from the bound radioactivity. The resulting dissociation constant KI (I=inhibitor), which is a measure of the displacement by the active substance according to the invention, was calculated by iterative non-linear regression analysis with the statistical analysis system (SAS) on an IBM computer, similar to the "Ligand" program of P. J. Munson and D. Rodbard (Analytical Biochem. 107, (1980) 220, Ligand: Versatile Computerized Approach for Characterization of Ligand Binding Systems).
1. Binding of ^3 H-2-amino-3-hydroxy-5-methyl-4-isoxazolepropionic acid (^3 H-AMPA) […]

[1] = target: NMDA (N-methyl-D-aspartate) receptors; test: Binding of 3H-5,7-dichlorokynurenic acid to rat cerebra membrane material; settings: displacement of 3H-5,7-dichlorokynurenic acid, membrane material from rat cerebra, incubated on ice for 30 minutes
Method: as §1
2. Binding of ^3 H-5,7-dichlorokynurenic acid […]

Ki (AMPA receptors) [µM]	Ki [1] [µM]	SMILES
< 10		O=c1[nH]c2cc(Cl)c(-n3cccc3)cc2[nH]c1=O [Example 1, 7-Chloro-6-(1-pyrrolyl)-2,3(1H,4H)-quinoxalinedione]
	< 10	O=c1[nH]c2cc(-n3cccc3)c(C(F)(F)F)cc2[nH]c1=O [Example 2, 6-(1-Pyrrolyl)-7-trifluoromethyl-2,3(1H,4H)-quinoxalinedione]
